These results are taken from US8481547B2, “Substituted benzothiazole and benzoxazole derivatives useful as inhibitors of DPP-1” (Janssen Pharmaceutica NV, priority 2009, dated 2013).

Structures can show the parent of a compound that is named as a salt.

For this test, the target named is T1, recombinant human DPP-1 (Cathepsin C) (Homo sapiens, UniProt P53634).
T1 construct: made in house
T1 sequence (P53634 25-463): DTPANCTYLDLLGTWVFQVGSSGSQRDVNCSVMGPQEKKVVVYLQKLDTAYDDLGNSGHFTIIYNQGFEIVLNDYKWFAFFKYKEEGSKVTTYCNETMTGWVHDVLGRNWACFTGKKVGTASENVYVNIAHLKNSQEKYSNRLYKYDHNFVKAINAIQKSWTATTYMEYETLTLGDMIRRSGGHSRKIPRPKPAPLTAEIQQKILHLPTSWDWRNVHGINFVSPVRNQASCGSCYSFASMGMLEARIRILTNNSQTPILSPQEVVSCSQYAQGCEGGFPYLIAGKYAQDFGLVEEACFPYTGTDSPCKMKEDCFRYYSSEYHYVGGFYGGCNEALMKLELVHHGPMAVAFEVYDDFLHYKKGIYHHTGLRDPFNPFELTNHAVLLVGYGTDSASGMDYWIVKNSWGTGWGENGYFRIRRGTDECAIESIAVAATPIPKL
In words: DPP-1 Inhibition Assay (In Vitro). In kind it is biochemical. The conditions noted are these: fluorogenic substrate GR-AMC 10 uM, 0.15 nM DPP-1, pH 7.0, room temperature; average value where tested multiple times. Here is the method: Test compounds were assessed for DPP-1 (Cathepsin C) inhibitory activity using a fluorogenic substrate, GR-AMC (Glycine-Arginine-amino-4-methylcoumarin, Bachem, 1-1215). The amount of amino-methylcoumarin released is proportional to the DPP-1 activity, and the reaction is monitored kinetically with a Molecular Devices plate reader using black 96-well plates.
All compounds were tested under room temperature conditions. The assay buffer consisted of 50 mM HEPES, pH 7.0, 100 mM NaCl, 2 mM glutathione (GSH), and 0.002% TWEEN 20. GSH and TWEEN 20 were added to the buffer fresh daily. Just prior to use, an in-house preparation of recombinant human DPP-1 (240 μM stock, MW 49.6 kD) was diluted 600-fold in assay buffer containing fresh 2 mM dithiothreitol (DTT) to activate the enzyme, then diluted into assay buffer (without DTT) 133-fold for a DPP-1 working solution of 3 nM. Test compounds were diluted in DMSO for 20× their final assay concentrations.
Additions to a 96-well black Costar 3915 plates were as follows: 90 μL of 11 μM GR-AMC, 5 μL test compound (followed by mixing), and 5 μL 3 nM DPP1 to start the reaction. Fluorescent reactions were monitored kinetically at 360 nm excitation, 440 nm emission on a Molecular Devices Spectramax XPS reader. The Softmax Pro software of the reader determined the initial velocity of the selected data (the first 3-5 minutes of the reaction), and the best linear regression fit of the initial kinetic data. Final assay conditions were 0.15 nM DPP-1, 10 uM GR-AMC, 50 mM HEPES, pH 7.0, 100 mM NaCl, 2 mM GSH, 0.002% TWEEN 20, 1 μM DTT, 5.0% DMSO. Initial velocity rates were plotted vs. test compound concentration by use of a four-parameter logistics equation (nonlinear regression, sigmoidal dose-response (variable slope), with fixed Hill (1.0) using GraphPad Prism® software for determination of DPP-1 IC50. Within-run assay coefficient of variation (CV) was generally <10%; between-run CV<20%.
Representative compounds of the present invention were tested according to the procedure as described above, with results as listed in Table 3, below.
In the case of `N[C@@H](Cc1cccs1)C(=O)N1CCN(c2nc3ccccc3o2)CC1` [Compound 2, (S)-2-amino-1-(4-(benzo[d]oxazol-2-yl)piperazin-1-yl)-3-(thiophen-2-yl)propan-1-one hydrochloride], the IC50 came out at 1400 nM. Take `COc1ccc(NC(=O)c2ccc3nc(N4CCN(C(=O)[C@@H](N)Cc5ccco5)CC4)sc3c2)cc1OC` [Compound 6]: the IC50 was determined as 2100 nM. In the case of `COc1cccc(CNC(=O)c2ccc3nc(N4CCN(C(=O)[C@@H](N)Cc5cccs5)CC4)sc3c2)c1` [Compound 31], the IC50 is 1200 nM. Regarding `CCCCNC(=O)c1ccc2nc(N3CCN(C(=O)[C@@H](N)Cc4cccs4)CC3)sc2c1` [Compound 24], the IC50 was found to be 820 nM. The same measure for `C#CC[C@H](N)C(=O)NCCNc1nc2ccccc2s1` [Compound 42]: 4700 nM; for `N[C@@H](Cc1cccs1)C(=O)N1CCN(c2nc3ccc(-c4ccc(C(F)(F)F)cc4)cc3s2)CC1` [Compound 14, (S)-2-amino-3-(thiophen-2-yl)-1-(4-(6-(4-(trifluoromethyl)phenyl)benzo[d]thiazol-2-yl)piperazin-1-yl)propan-1-one]: 1300 nM; for `CCCNC(=O)c1ccc2nc(N3CCN(C(=O)[C@@H](N)Cc4cccs4)CC3)sc2c1` [Compound 29]: 2100 nM. In the case of `CC[C@H](N)C(=O)NCCNc1nc2ccc(OC)cc2s1` [Compound 43, (S)-2-amino-N-(2-(6-methoxybenzo[d]thiazol-2-ylamino)ethyl)butanamide hydrochloride] it was 12000 nM; in that of `N[C@@H](Cc1cccs1)C(=O)N1CCN(c2nc3ccc(Br)cc3s2)CC1` [Compound 5], 1300 nM; in that of `COc1ccc(NC(=O)c2ccc3nc(N4CCN(C(=O)[C@@H](N)Cc5ccsc5)CC4)sc3c2)cc1OC` [Compound 12], 5600 nM.

Turning to `N[C@@H](Cc1cccs1)C(=O)N1CCN(c2nc3ccc(C(=O)NC4CCCC4)cc3s2)CC1` [Compound 19, (S)-2-(4-(2-amino-3-(thiophen-2-yl)propanoyl)piperazin-1-yl)-N-cyclopentylbenzo[d]thiazole-6-carboxamide], the IC50 is 870 nM. For `N[C@@H](Cc1cccs1)C(=O)N1CCN(c2nc3ccc(-c4ccc(F)c(F)c4)cc3s2)CC1` [Compound 11], the 50% inhibitory concentration (IC50) amounted to 970 nM.

Consider `N[C@@H](Cc1cccs1)C(=O)N1CCN(c2nc3ccc(-c4ccc(O)cc4)cc3s2)CC1` [Compound 15], for which the half-inhibitory concentration (IC50) came out at 220 nM. Consider `N[C@@H](Cc1cccs1)C(=O)N1CCN(c2nc3ccc(CNC4CCCC4)cc3s2)CC1` [Compound 21, (S)-2-amino-1-(4-(6-((cyclopentylamino)methyl)benzo[d]thiazol-2-yl)piperazin-1-yl)-3-(thiophen-2-yl)propan-1-one], for which the IC50 turned out to be 520 nM. In the case of `N[C@@H](Cc1cccs1)C(=O)NCCNc1nc2ccccc2o1` [Compound 47] it was 700 nM; in that of `CC[C@H](N)C(=O)NCCNc1nc2ccccc2s1` [Compound 41, (S)-2-amino-N-(2-(benzo[d]thiazol-2-ylamino)ethyl)butanamide hydrochloride], 18000 nM; in that of `N[C@@H](Cc1cccs1)C(=O)N1CCN(c2nc3ccc(C(=O)NC4CCCCC4)cc3s2)CC1` [Compound 30], 2300 nM. The same measure for `N[C@@H](Cc1cccs1)C(=O)NCCNc1nc2ccccc2s1` [Compound 46, (S)-2-amino-N-(2-(benzo[d]thiazol-2-ylamino)ethyl)-3-(thiophen-2-yl)propanamide hydrochloride]: 740 nM; for `N[C@@H](Cc1cccs1)C(=O)N1CCN(c2nc3ccc(-c4cccnc4)cc3s2)CC1` [Compound 13]: 370 nM. The same measure for `N[C@@H](Cc1cccs1)C(=O)N1CCN(c2nc3ccc(C(=O)Nc4ccc(F)cc4)cc3s2)CC1` [Compound 20]: 560 nM; for `CC[C@H](N)C(=O)N1CCN(c2nc3ccc(C(=O)Nc4ccc(OC)c(OC)c4)cc3s2)CC1` [Compound 4, (S)-2-(4-(2-aminobutanoyl)piperazin-1-yl)-N-(3,4-dimethoxyphenyl)benzo[d]thiazole-6-carboxamide hydrochloride]: 3000 nM; for `N[C@@H](Cc1cccs1)C(=O)N1CCN(c2nc3ccccc3s2)CC1` [Compound 1]: 3500 nM.

Take `N[C@@H](Cc1cccs1)C(=O)N1CCN(c2nc3ccc(C(=O)O)cc3s2)CC1` [Compound 26]: the IC50 turned out to be 9600 nM. The same measure for `N[C@@H](Cc1cccs1)C(=O)N1CCN(c2nc3ccc(CO)cc3s2)CC1` [Compound 18, (S)-2-amino-1-(4-(6-(hydroxymethyl)benzo[d]thiazol-2-yl)piperazin-1-yl)-3-(thiophen-2-yl)propan-1-one]: 760 nM. Regarding `CCOc1ccc(NC(=O)c2ccc3nc(N4CCN(C(=O)[C@@H](N)Cc5cccs5)CC4)sc3c2)cc1` [Compound 28], the IC50 worked out at 1200 nM. The same measure for `C#CC[C@H](N)C(=O)NCCNc1nc2ccccc2o1` [Compound 44, (S)-2-amino-N-(2-(benzo[d]oxazol-2-ylamino)ethyl)pent-4-ynamide hydrochloride]: 3100 nM.

`CN(C)C(=O)c1ccc2nc(N3CCN(C(=O)[C@@H](N)Cc4cccs4)CC3)sc2c1` [Compound 27]: the IC50 amounted to 2200 nM. Turning to `COc1ccc(NC(=O)c2ccc3nc(N4CCN(C(=O)[C@@H](N)Cc5cccs5)CC4)sc3c2)cc1OC` [Compound 3, (S)-2-(4-(2-amino-3-(thiophen-2-yl)propanoyl)piperazin-1-yl)-N-(3,4-dimethoxyphenyl)benzo[d]thiazole-6-carboxamide hydrochloride], the 50% inhibitory concentration (IC50) came out at 170 nM.

Regarding `COc1ccc(NC(=O)c2ccc3nc(NCCN(C)C(=O)[C@@H](N)Cc4cccs4)sc3c2)cc1OC` [Compound 48, (S)-2-(2-(2-amino-N-methyl-3-(thiophen-2-yl)propanamido)ethylamino)-N-(3,4-dimethoxyphenyl)benzo[d]thiazole-6-carboxamide], the IC50 was 200 nM. As for `Cc1ccc(-c2ccc3nc(N4CCN(C(=O)[C@@H](N)Cc5cccs5)CC4)sc3c2)cc1` [Compound 8], the half-inhibitory concentration (IC50) stood at 1100 nM. The same measure for `N[C@@H](Cc1cccs1)C(=O)N1CCN(c2nc3ccc(-c4ccccc4F)cc3s2)CC1` [Compound 16]: 580 nM; for `CC[C@H](N)C(=O)NCCNc1nc2ccccc2o1` [Compound 45]: approximately 8000 nM.
